Laboratory results: article PMC6366416, “Synthesis and in vitro anticancer activity of certain novel 1-(2-methyl-6-arylpyridin-3-yl)-3-phenylureas as apoptosis-inducing agents” (Journal of Enzyme Inhibition and Medicinal Chemistry, 2019)

Key:
Assay in all cases: NCI one-dose SRB growth inhibition
Type in all cases: cell-based
[1] = test system: HT29; details: Homo sapiens, HT-29, 48 h, Colon Cancer, read-out: GI% HT29
Outline: (§1)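 NCI DTP screen; 48 h drug exposure; SRB read-out of cell growth/viability; nine-tumour-type panel.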

[2] = test system: OVCAR-5; details: Homo sapiens, Ovarian Cancer, 48 h, read-out: GI% OVCAR-5
Outline: as §1

[3] = test system: 786-0; details: Homo sapiens, Renal Cancer, 48 h, read-out: GI% 786-0
Outline: as §1

[4] = test system: HOP-92; details: Homo sapiens, Non-Small Cell Lung Cancer, 48 h, read-out: GI% HOP-92
Outline: as §1

[5] = test system: NCI-H23; details: Homo sapiens, Non-Small Cell Lung Cancer, 48 h, read-out: GI% NCI-H23
Outline: as §1

[6] = test system: PC-3; details: Homo sapiens, PC-3, 48 h, Prostate, read-out: GI% PC-3
Outline: as §1

[7] = test system: UO-31; details: Homo sapiens, Renal Cancer, 48 h, read-out: GI% UO-31
Outline: as §1

[8] = test system: TK-10; details: Homo sapiens, Renal Cancer, 48 h, read-out: GI% TK-10
Outline: as §1

[9] = test system: SNB-75; details: Homo sapiens, CNS Cancer, 48 h, read-out: GI% SNB-75
Outline: as §1

[10] = test system: T-47D; details: Homo sapiens, T47D, 48 h, Breast Cancer, read-out: GI% T-47D
Outline: as §1

[11] = test system: UACC-257; details: Homo sapiens, UACC-257, read-out: GI% UACC-257, Melanoma, 48 h
Outline: as §1

[12] = test system: NCI-H460; details: Homo sapiens, Non-Small Cell Lung Cancer, 48 h, read-out: GI% NCI-H460
Outline: as §1

[13] = test system: SF-268; details: Homo sapiens, CNS Cancer, 48 h, read-out: GI% SF-268
Outline: as §1

[14] = test system: HOP-62; details: Homo sapiens, Non-Small Cell Lung Cancer, 48 h, read-out: GI% HOP-62
Outline: as §1

[15] = test system: HCT-116; details: Homo sapiens, HCT-116, 48 h, Colon Cancer, read-out: GI% HCT-116
Outline: as §1

[16] = test system: HS 578T; details: Homo sapiens, Breast Cancer, 48 h, read-out: GI% HS 578T
Outline: as §1

[17] = test system: K-562; details: Homo sapiens, K562, 48 h, Leukemia, read-out: GI% K-562
Outline: as §1

[18] = test system: MDA-MB-231; details: Homo sapiens, Breast Cancer, 48 h, read-out: GI% MDA-MB-231
Outline: as §1

[19] = test system: UACC-62; details: Homo sapiens, UACC-62, 48 h, Melanoma, read-out: GI% UACC-62
Outline: as §1

[20] = test system: SN12C; details: Homo sapiens, Renal Cancer, 48 h, read-out: GI% SN12C
Outline: as §1

[21] = test system: IGROV1; details: Homo sapiens, IGROV-1, Ovarian Cancer, 48 h, read-out: GI% IGROV1
Outline: as §1

[22] = test system: HCC-2998; details: Homo sapiens, Colon Cancer, 48 h, read-out: GI% HCC-2998
Outline: as §1

[23] = test system: MALME-3M; details: Homo sapiens, Melanoma, 48 h, read-out: GI% MALME-3M
Outline: as §1

[24] = test system: A498; details: Homo sapiens, Renal Cancer, 48 h, read-out: GI% A498
Outline: as §1

[25] = test system: SR; details: Homo sapiens, 48 h, Leukemia, read-out: GI% SR
Outline: as §1

[26] = test system: BT-549; details: Homo sapiens, Breast Cancer, 48 h, read-out: GI% BT-549
Outline: as §1

[27] = test system: NCI/ADR-RES; details: Homo sapiens, Ovarian Cancer, 48 h, read-out: GI% NCI/ADR-RES
Outline: as §1

[28] = test system: RXF 393; details: Homo sapiens, Renal Cancer, 48 h, read-out: GI% RXF 393
Outline: as §1

[29] = test system: SK-MEL-5; details: Homo sapiens, Melanoma, 48 h, read-out: GI% SK-MEL-5
Outline: as §1

[30] = test system: OVCAR-3; details: Homo sapiens, OVCAR-3, 48 h, Ovarian Cancer, read-out: GI% OVCAR-3
Outline: as §1

[31] = test system: MOLT-4; details: Homo sapiens, Leukemia, 48 h, read-out: GI% MOLT-4
Outline: as §1

[32] = test system: U251; details: Homo sapiens, U-251, CNS Cancer, 48 h, read-out: GI% U251
Outline: as §1

[33] = test system: SF-539; details: Homo sapiens, CNS Cancer, 48 h, read-out: GI% SF-539
Outline: as §1

SMILES | inhibition at 10 µM [1] | inhibition at 10 µM [2] | inhibition at 10 µM [3] | inhibition at 10 µM [4] | inhibition at 10 µM [5] | inhibition at 10 µM [6] | inhibition at 10 µM [7] | inhibition at 10 µM [8] | inhibition at 10 µM [9] | inhibition at 10 µM [10] | inhibition at 10 µM [11] | inhibition at 10 µM [12] | inhibition at 10 µM [13] | inhibition at 10 µM [14] | inhibition at 10 µM [15] | inhibition at 10 µM [16] | inhibition at 10 µM [17] | inhibition at 10 µM [18] | inhibition at 10 µM [19] | inhibition at 10 µM [20] | other results
Cc1nc(-c2ccc(F)cc2)ccc1NC(=O)Nc1ccc2c(c1)OCO2 [Compound 5d, 1-(Benzo[d][1, 3]dioxol-5-yl)-3-(6-(4-fluorophenyl)-2-methylpyridin-3-yl)urea] | 14% | < 10% | < 10% | < 10% | < 10% | < 10% | < 10% | < 10% | < 10% | < 10% | 15% | < 10% | < 10% | < 10% | 17% | < 10% | 23% | < 10% | 20% | < 10% | inhibition at 10 µM [21]: < 10%; inhibition at 10 µM [22]: < 10%; inhibition at 10 µM [23]: < 10%; inhibition at 10 µM [24]: < 10%; inhibition at 10 µM [25]: 11%; inhibition at 10 µM [26]: < 10%; inhibition at 10 µM [27]: < 10%; inhibition at 10 µM [28]: < 10%; inhibition at 10 µM [29]: 19%; inhibition at 10 µM [30]: < 10%; inhibition at 10 µM [31]: < 10%; inhibition at 10 µM [32]: < 10%; inhibition at 10 µM [33]: < 10%
Cc1nc(-c2ccc(Cl)cc2)ccc1NC(=O)Nc1ccc2c(c1)OCO2 [Compound 5g, 1-(Benzo[d][1,3]dioxol-5-yl)-3-(6-(4-chlorophenyl)-2-methylpyridin-3-yl)urea] | 11% | < 10% | < 10% | < 10% | < 10% | < 10% | < 10% | < 10% | < 10% | < 10% | 25% | < 10% | < 10% | < 10% | < 10% | < 10% | 21% | < 10% | 27% | < 10% | inhibition at 10 µM [21]: < 10%; inhibition at 10 µM [22]: < 10%; inhibition at 10 µM [23]: < 10%; inhibition at 10 µM [24]: < 10%; inhibition at 10 µM [25]: 22%; inhibition at 10 µM [26]: < 10%; inhibition at 10 µM [27]: < 10%; inhibition at 10 µM [28]: < 10%; inhibition at 10 µM [29]: 17%; inhibition at 10 µM [30]: < 10%; inhibition at 10 µM [31]: 18%; inhibition at 10 µM [32]: < 10%; inhibition at 10 µM [33]: < 10%
Cc1nc(-c2cccs2)ccc1NC(=O)Nc1ccc(Cl)cc1 [Compound 5i, 1-(4-Chlorophenyl)-3-(2-methyl-6-(thiophen-2-yl)pyridin-3-yl)urea] | < 10% | < 10% | < 10% | < 10% | < 10% | < 10% | < 10% | < 10% | < 10% | 13% | 23% | < 10% | < 10% | < 10% | < 10% | < 10% | < 10% | < 10% | 19% | < 10% | inhibition at 10 µM [21]: < 10%; inhibition at 10 µM [22]: < 10%; inhibition at 10 µM [23]: < 10%; inhibition at 10 µM [24]: < 10%; inhibition at 10 µM [25]: < 10%; inhibition at 10 µM [26]: < 10%; inhibition at 10 µM [27]: < 10%; inhibition at 10 µM [28]: < 10%; inhibition at 10 µM [29]: < 10%; inhibition at 10 µM [30]: < 10%; inhibition at 10 µM [31]: 15%; inhibition at 10 µM [32]: < 10%; inhibition at 10 µM [33]: < 10%
Cc1nc(-c2ccc(F)cc2)ccc1NC(=O)Nc1cccc(C(F)(F)F)c1 [Compound 5a, 1-(6-(4-Fluorophenyl)-2-methylpyridin-3-yl)-3-(3-(trifluoromethyl)phenyl)urea] | > 40% | < 10% | < 10% | < 10% | 24% | > 40% | 15% | < 10% | < 10% | > 40% | 38% | 34% | < 10% | 31% | > 40% | < 10% | > 40% | 28% | > 40% | 26% | inhibition at 10 µM [21]: < 10%; inhibition at 10 µM [22]: < 10%; inhibition at 10 µM [23]: < 10%; inhibition at 10 µM [24]: < 10%; inhibition at 10 µM [25]: > 40%; inhibition at 10 µM [26]: < 10%; inhibition at 10 µM [27]: 20%; inhibition at 10 µM [28]: < 10%; inhibition at 10 µM [29]: 32%; inhibition at 10 µM [30]: > 40%; inhibition at 10 µM [31]: 33%; inhibition at 10 µM [32]: 31%; inhibition at 10 µM [33]: < 10%
